Source: patent US7355074B2, “Compounds having aromatic rings and side-chain amide-functionality and a method for transporting monovalent anions across biological membranes using the same” (The University of Maryland, priority 2003, dated 2008)

How the values were obtained:
[1] = intravesicular pH of LUVs experiencing a Cl- gradient (calixarene amides); type: biochemical; settings: NaCl-loaded LUVs in isosmotic Na2SO4 buffer
Method: FIG. 8 illustrates changes in intravesicular pH upon addition of calixarene tetrabutylamide and calixarene octabutylamide to NaCl^+ loaded vesicles suspended in a sulfate phosphate buffer (emission of HPTS is used to monitor the pH changes in LUVs). At t=60 s, 20 μL of 500 μM of calixarene tetrabutylamide 2 (top trace) or the octabutylamide 3 (bottom trace) was added to 1.95 mL of a LUV suspension to give 1:100 ligand:lipid molar ratio. At t=500 s, 40 μL of 5% Triton X-100 was added. Intravesicular pH values were obtained as a function of the ratio of HPTS emission intensities at 510 nm, when excited at […]. The calibration was performed by measuring the HPTS emission intensities and the pH values of a […] HPTS solution in 10 mM phosphate buffer containing 100 mM NaCl. The calibration equation obtained (pH=1.1684×log (I0I1)+6.9807, r=0.998, where I0 is the emission intensity with excitation at […]) was used to convert the emission intensities into actual pH values.
The pH reached its maximum 250 s after addition of 2 and held constant until the liposomes were lysed with detergent. […] In effect, compound 2 moves […] along with Cl^− down the chloride gradient, consequently building a pH gradient across the membrane. Therefore, NaCl filled vesicles lose Cl^− and H^+ upon addition of 2 and become more alkaline.
Calcein-Release Assay. Calcein-loaded vesicles (100 μL of the stock solution), filled with a saline phosphate buffer (10 mM sodium phosphate, pH 6.4, […] NaCl), were suspended in 1.85 mL of an isoosmotic phosphate sulfate buffer (10 mM sodium phosphate, pH 6.4^−75 mM (Na2SO4) and placed into a fluorimetric cell. HPTS emission at 510 nm was monitored with excitation wavelengths at 403 and 460 nm simultaneously. During the experiment, 20 μL of a 0-500 μM THF solution of the compound of interest was added through an injection port. Intravesicular pH values were obtained as a function of the ratio of HPTS emission intensities at 510 nm, when excited at 403 and 460 nm. […]

HEK-293 cells = assay: patch-clamp recordings in whole-cell configuration; type: cell-based
Description: FIG. 11 illustrates voltage clamp recordings in whole cell configuration (HEK-293 cells). (A) Current across membrane after application of calixarene tetrabutylamide 2 at different voltages. From bottom to top, trace denotes currents at −120, −80, −40, 0, 40, 80 and 120 mV, respectively, with saline physiological buffer being used (B) Current across membrane in a sodium glutamate isosmotic-buffer at different voltages. The potential was varied over a range of −120 through +120 mV, with a 40 mV step. (C) Current across membrane in Na2SO4 isosmotic buffer at different voltages. The potential was varied over a range of −120 through +120 mV, with a 40 mV steps. (D) Current across the membrane at +120 mV in application/wash cycle traces from bottom to top denote current in absence of 2, current after first application of 2 (a), following by […] lavage, second application (b), and third application (c). Trace on top denotes current after lavage without application of 2. Baselines of the first and last traces shifted for clarity, saline physiological buffer used.
Electrophysiological Recordings. Patch-Clamp Experiments. HEK 293 cells, plated in […] dishes containing 10 mL of the growth media were maintained at 37° C. with 5% CO2 in the incubator. Growth medium for HEK 293 cells was minimum essential medium supplemented with 10% fetal bovine serum, 100 U mL penicillin and 100 μg/mL streptomycin. Electrophysiological recordings were performed in the whole-cell configuration of the patch-clamp technique using a DAGAN 8900 amplifier (Dagan Corp., Minneapolis, Minn.). The patch electrodes, pulled from borosilicate class capillaries, had resistance of 3-4 MΩ when filled with internal solution containing (in mM): CsCl 110: tetraethylammonium chloride, 20; MgATP. 5:EGTA. 14: HEPES, 20 and titrated to pH 7.4 with CsOH. Approximately 90% of electrode resistance was compensated electronically, so that effective series resistance was less than 1 MΩ. HEK cells were used for experiments 2 to 4 days after plating the cells on the cover sips. Generation of the voltage-clamp protocols and data acquisition were carried out using PCLAMP software (Axon instruments, Inc., Burlingame, Calif.). Sampling frequency was 0.5-2.0 kHz, and current signals were filtered at […] before digitization and storage. All experiments were performed at room temperature (23-25° C.). […] Cells plated on plastic cover slips 915 mm round thermanox, Nunc, Inc., Napierville, Ill.) were transferred to an experimental chamber mounted on the stage of an inverted microscope (Diaphot, Nikon, Nagano, Japan) and were bathed in a solution containing (in mM):NaCl, 137:CaCl2, 2; KCl. 5.4; HEPES, 10; glucose, 10:glucose, 10; MgCl2, 1 (pH 7.4 adjusted with NaOH). The experimental chamber was constantly perfused at a rate of about 1 mL/min with a control bathing solution. In solutions buffered on the cell under recording KCl was omitted and in some experiments NaCl was replaced by isoosmotic amounts of Na2SO4 or Na glutamate. Servo-controlled miniature solenoid valves were used for rapid switching between control and test solutions (delay in solution change was <20 ms). Compound 2 was dissolved in DMSO, and DMSO was added in an equal amount to the control and test solutions.

CCCCNC(=O)COc1c2cccc1Cc1cccc(c1OCC(=O)NCCCC)Cc1cccc(c1OCC(=O)NCCCC)Cc1cccc(c1OCC(=O)NCCCC)C2 [calix[4]arene tetrabutylamide 2, Calix[4]arene tetrabutylamide]
change of intravesicular pH / pH gradient formation [1]: rapid increase in intravesicular pH
time to maximum intravesicular pH after addition [1]: 250 s
lavage time after which the current returned to the baseline (HEK-293 cells; +120 mV): 1.5 min
cells that responded at +80 mV (HEK-293 cells; NaCl buffer): 3 of 15
damage to the cell membrane (HEK-293 cells; application/wash cycle): did not damage the cell membrane
holding potential at which current across the cell membrane was caused (HEK-293 cells; extracellular application, NaCl buffer): +120 mV
current in isosmotic Na glutamate or Na2SO4 buffer (HEK-293 cells; holding potentials between −120 and +120 mV): no current across the membrane
